Test results as given in PubChem BioAssay (NCI).
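GI50 is the concentration that inhibits growth by half. TGI is the concentration that stops growth completely.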

Legend:
Test in all cases: growth of human tumour cells (NCI), 384-well format
[1] = tested on: OVCAR-5 ovarian
[2] = tested on: ACHN renal
[3] = tested on: MALME-3M melanoma
[4] = tested on: UACC-62 melanoma
[5] = tested on: UO-31 renal
[6] = tested on: HOP-62 NSCLC
[7] = tested on: NCI-H522 lung
[8] = tested on: A549 NSCLC
[9] = tested on: CAKI-1 renal
[10] = tested on: HS 578T breast
[11] = tested on: OVCAR-3 ovarian
[12] = tested on: NCI-H322M lung
[13] = tested on: SF-295 CNS
[14] = tested on: SN12C renal
[15] = tested on: KM12 colon
[16] = tested on: HT29 colon
[17] = tested on: TK-10 renal
[18] = tested on: SK-MEL-5 melanoma
[19] = tested on: IGROV1 ovarian
[20] = tested on: HCT-15 colon
[21] = tested on: LOX IMVI melanoma
[22] = tested on: T-47D breast
[23] = tested on: SR leukemia
[24] = tested on: SF-268 CNS
[25] = tested on: 786-0 renal
[26] = tested on: M14 melanoma
[27] = tested on: MCF7 breast
[28] = tested on: SF-539 CNS
[29] = tested on: HL-60(TB) leukemia
[30] = tested on: EKVX NSCLC
[31] = tested on: MDA-MB-468 breast
[32] = tested on: HCT-116 colon
[33] = tested on: HOP-92 NSCLC
[34] = tested on: MOLT-4 leukemia
[35] = tested on: MDA-MB-231 breast
[36] = tested on: RPMI-8226 leukemia
[37] = tested on: SK-MEL-28 melanoma
[38] = tested on: UACC-257 melanoma
[39] = tested on: A498 renal
[40] = tested on: RXF 393 renal
[41] = tested on: BT-549 breast
[42] = tested on: COLO 205 colon
[43] = tested on: DU-145 prostate
[44] = tested on: HCC-2998 colon

CCOc1cc2ncc(C#N)c(Nc3ccc(OCc4ccccn4)c(Cl)c3)c2cc1NC(=O)/C=C/CN(C)C
GI50 [1]: 864 nM
TGI [1]: > 100000 nM
GI50 [2]: 61.1 nM
TGI [2]: 1220 nM
GI50 [3]: 188 nM
TGI [3]: 808 nM
GI50 [4]: 405 nM
TGI [4]: > 100000 nM
GI50 [5]: 267 nM
TGI [5]: > 100000 nM
GI50 [6]: 1130 nM
TGI [6]: 2350 nM
GI50 [7]: < 10 nM
TGI [7]: 63.3 nM
GI50 [8]: 312 nM
TGI [8]: 1740 nM
GI50 [9]: 98.7 nM
TGI [9]: 759 nM
GI50 [10]: 220 nM
TGI [10]: 848 nM
GI50 [11]: 148 nM
TGI [11]: > 100000 nM
GI50 [12]: 14.9 nM
TGI [12]: 53 nM
GI50 [13]: > 100000 nM
TGI [13]: > 100000 nM
GI50 [14]: 140 nM
TGI [14]: > 100000 nM
GI50 [15]: 1200 nM
TGI [15]: 2450 nM
GI50 [16]: 1230 nM
TGI [16]: 2490 nM
GI50 [17]: 71 nM
TGI [17]: > 100000 nM
GI50 [18]: 183 nM
TGI [18]: 474 nM
GI50 [19]: 25.9 nM
TGI [19]: 320 nM
GI50 [20]: 349 nM
TGI [20]: 1500 nM
GI50 [21]: 969 nM
TGI [21]: 2150 nM
GI50 [22]: < 10 nM
TGI [22]: > 100000 nM
GI50 [23]: 530 nM
TGI [23]: 876 nM
GI50 [24]: 311 nM
TGI [24]: > 100000 nM
GI50 [25]: 251 nM
TGI [25]: 1230 nM
GI50 [26]: 276 nM
TGI [26]: 1180 nM
GI50 [27]: 881 nM
TGI [27]: 2100 nM
GI50 [28]: 2170 nM
TGI [28]: > 100000 nM
GI50 [29]: 197 nM
TGI [29]: 639 nM
GI50 [30]: 41.8 nM
TGI [30]: 1240 nM
GI50 [31]: < 10 nM
TGI [31]: 29 nM
GI50 [32]: 473 nM
TGI [32]: 1670 nM
GI50 [33]: 351 nM
TGI [33]: 1620 nM
GI50 [34]: 207 nM
TGI [34]: 511 nM
GI50 [35]: 754 nM
TGI [35]: 2000 nM
GI50 [36]: 242 nM
TGI [36]: 515 nM
GI50 [37]: > 100000 nM
TGI [37]: > 100000 nM
GI50 [38]: 2150 nM
TGI [38]: > 100000 nM
GI50 [39]: 89.6 nM
TGI [39]: 1220 nM
GI50 [40]: 143 nM
TGI [40]: 598 nM
GI50 [41]: 396 nM
TGI [41]: 1520 nM
GI50 [42]: 3670 nM
TGI [42]: > 100000 nM
GI50 [43]: 143 nM
TGI [43]: 1420 nM
GI50 [44]: 1260 nM
TGI [44]: 2520 nM
